Measured values published in patent US20230257351A1, “SUBSTITUTED N-[…] HAVING P2X4 RECEPTOR ANTAGONISTIC ACTIVITY” (Bayer Aktiengesellschaft, priority 2020, published 2023).
pIC50: −log10 of the molar value.

Target: T1, human P2X4 (Homo sapiens, UniProt Q99571)
T1 construct: expressed in transfected cells
T1 sequence (Q99571 1-388): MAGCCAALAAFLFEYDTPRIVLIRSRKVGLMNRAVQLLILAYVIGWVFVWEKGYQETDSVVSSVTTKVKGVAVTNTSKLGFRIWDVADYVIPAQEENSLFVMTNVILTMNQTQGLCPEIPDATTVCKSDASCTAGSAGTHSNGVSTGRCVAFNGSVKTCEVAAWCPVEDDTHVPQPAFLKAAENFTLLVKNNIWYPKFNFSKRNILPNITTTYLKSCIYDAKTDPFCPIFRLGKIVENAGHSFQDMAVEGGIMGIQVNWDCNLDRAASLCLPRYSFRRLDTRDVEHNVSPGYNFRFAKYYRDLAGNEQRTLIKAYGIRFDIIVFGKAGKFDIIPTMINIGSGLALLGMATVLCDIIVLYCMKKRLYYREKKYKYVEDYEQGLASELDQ
Test: Human P2X4 HEK Cell FLIPR Assay
Assay type: cell-based
Settings: HEK293 stably expressing human P2X4, agonist Bz-ATP 3 μM (EC80); for pIC50: read-out: Human P2X4 HEK Cells (FLIPR Assay) avg IC50
How it was run: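 HEK293 cells stably expressing human P2X4 were loaded with Fluo8-AM (30 min, 37 °C, HBSS/HEPES pH 7.4 with probenecid), then preincubated 30 min at room temperature with compound, 25 μM–1 nM final, 0.5% DMSO. Bz-ATP-evoked calcium fluorescence was read on FLIPR; data were normalized to agonist control and given a four-parameter fit for IC50.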

| SMILES | Human P2X4 HEK Cells (FLIPR Assay) avg Efficacy | pIC50 |
| --- | --- | --- |
| COc1cc(F)cc(N(C(C)=O)c2cc(NC(=O)Cc3cccc(F)c3Cl)ccn2)c1 [Example 160, N-{4-[2-(2-Chlor-3-fluorphenyl)acetamido]pyridin-2-yl}-N-(3-fluor-5-methoxyphenyl)acetamide] | 101% | 6.42 |
| COc1cc(F)cc(N(C(C)=O)c2cc(NC(=O)Cc3ccccc3Cl)ccn2)c1 [Example 161, N-{4-[2-(2-Chlorphenyl)acetamido]pyridin-2-yl}-N-(3-fluor-5-methoxyphenyl)acetamide] | 101% | 6.32 |
| COc1cc(F)cc(N(C(C)=O)c2cc(NC(=O)Cc3c(Cl)cccc3Cl)ccn2)c1 [Example 162, N-{4-[2-(2,6-Dichlorphenyl)acetamido]pyridin-2-yl}-N-(3-fluor-5-methoxyphenyl)acetamide] | 104% | 6.24 |
| COc1cc(F)cc(N(C(C)=O)c2cc(NC(=O)Cc3ccc(F)cc3Cl)ccn2)c1 [Example 163, N-{4-[2-(2-Chlor-4-fluorphenyl)acetamido]pyridin-2-yl}-N-(3-fluor-5-methoxyphenyl)acetamide] | 100% | 6.18 |
| COc1cc(F)cc(N(C(C)=O)c2cc(NC(=O)Cc3c(F)cccc3Cl)ccn2)c1 [Example 164, N-{4-[2-(2-Chlor-6-fluorphenyl)acetamido]pyridin-2-yl}-N-(3-fluor-5-methoxyphenyl)acetamide] | 100% | 6.17 |
| CC(=O)N(c1cc(NC(=O)Cc2c(Cl)cccc2Cl)ccn1)c1ccccc1C(F)F [Example 165, N-{4-[2-(2,6-Dichlorphenyl)acetamido]pyridin-2-yl}-N-[2-(difluormethyl)phenyl]acetamide] | 99% | 6.40 |
| CC(=O)N(c1cc(NC(=O)Cc2ccccc2Cl)ccn1)c1ccccc1C(F)F [Example 166, N-{4-[2-(2-Chlorphenyl)acetamido]pyridin-2-yl}-N-[2-(difluormethyl)phenyl]acetamide] | 97% | 6.18 |
| CC(=O)N(c1cc(NC(=O)Cc2cccc(F)c2Cl)ccn1)c1ccccc1C(F)F [Example 167, N-{4-[2-(2-Chlor-3-fluorphenyl)acetamido]pyridin-2-yl}-N-[2-(difluormethyl)phenyl]acetamide] | 100% | 6.17 |
| CC(=O)N(c1cc(NC(=O)Cc2c(F)cccc2Cl)ccn1)c1ccccc1C(F)F [Example 168, N-{4-[2-(2-Chlor-6-fluorphenyl)acetamido]pyridin-2-yl}-N-[2-(difluormethyl)phenyl]acetamide] | 99% | 6.12 |
| CC(=O)N(c1cc(NC(=O)Cc2ccc(F)cc2Cl)ccn1)c1ccccc1C(F)F [Example 169, N-{4-[2-(2-Chlor-4-fluorphenyl)acetamido]pyridin-2-yl}-N-[2-(difluormethyl)phenyl]acetamide] | 101% | 6.09 |
| CC(=O)N(c1cc(NC(=O)Cc2ccccc2Cl)ccn1)c1ccc(C)cc1C [Example 170, N-{4-[2-(2-Chlorphenyl)acetamido]pyridin-2-yl}-N-(2,4-dimethylphenyl)acetamide] | 104% | 6.33 |
| CC(=O)N(c1cc(NC(=O)Cc2cccc(F)c2Cl)ccn1)c1ccc(C)cc1C [Example 171, N-{4-[2-(2-Chlor-3-fluorphenyl)acetamido]pyridin-2-yl}-N-(2,4-dimethylphenyl)acetamide] | 103% | 6.29 |
| CC(=O)N(c1cc(NC(=O)Cc2c(F)cccc2Cl)ccn1)c1ccc(C)cc1C [Example 172, N-{4-[2-(2-Chlor-6-fluorphenyl)acetamido]pyridin-2-yl}-N-(2,4-dimethylphenyl)acetamide] | 104% | 6.28 |
| CC(=O)N(c1cc(NC(=O)Cc2c(Cl)cccc2Cl)ccn1)c1ccc(C)cc1C [Example 173, N-{4-[2-(2,6-Dichlorphenyl)acetamido]pyridin-2-yl}-N-(2,4-dimethylphenyl)acetamide] | 104% | 6.28 |
| CC(=O)N(c1cc(NC(=O)Cc2ccc(F)cc2Cl)ccn1)c1ccc(C)cc1C [Example 174, N-{4-[2-(2-Chlor-4-fluorphenyl)acetamido]pyridin-2-yl}-N-(2,4-dimethylphenyl)acetamide] | 103% | 6.28 |
| CC(=O)N(c1cc(C)cc(C#N)c1)c1cc(NC(=O)Cc2ccccc2Cl)ccn1 [Example 175, N-{4-[2-(2-Chlorphenyl)acetamido]pyridin-2-yl}-N-(3-cyan-5-methylphenyl)acetamide] | 97% | 6.29 |
| CC(=O)N(c1cc(C)cc(C#N)c1)c1cc(NC(=O)Cc2c(Cl)cccc2Cl)ccn1 [Example 176, N-(3-Cyan-5-methylphenyl)-N-{4-[2-(2,6-dichlorphenyl)acetamido]pyridin-2-yl}acetamide] | 101% | 6.25 |
| CC(=O)N(c1cc(C)cc(C#N)c1)c1cc(NC(=O)Cc2cccc(F)c2Cl)ccn1 [Example 177, N-{4-[2-(2-Chlor-3-fluorphenyl)acetamido]pyridin-2-yl}-N-(3-cyan-5-methylphenyl)acetamide] | 96% | 6.24 |
| CC(=O)N(c1cc(C)cc(C#N)c1)c1cc(NC(=O)Cc2ccc(F)cc2Cl)ccn1 [Example 178, N-{4-[2-(2-Chlor-4-fluorphenyl)acetamido]pyridin-2-yl}-N-(3-cyan-5-methylphenyl)acetamide] | 99% | 6.21 |
| CC(=O)N(c1cc(C)cc(C#N)c1)c1cc(NC(=O)Cc2c(F)cccc2Cl)ccn1 [Example 179, N-{4-[2-(2-Chlor-6-fluorphenyl)acetamido]pyridin-2-yl}-N-(3-cyan-5-methylphenyl)acetamide] | 98% | 6.17 |
| CC(=O)N(c1ccc(C)c(Cl)c1)c1cc(NC(=O)Cc2ccccc2Cl)ccn1 [Example 180, N-(3-Chlor-4-methylphenyl)-N-{4-[2-(2-chlorphenyl)acetamido]pyridin-2-yl}acetamide] | 101% | 6.24 |
| CC(=O)N(c1ccc(C)c(Cl)c1)c1cc(NC(=O)Cc2cccc(F)c2Cl)ccn1 [Example 181, N-{4-[2-(2-Chlor-3-fluorphenyl)acetamido]pyridin-2-yl}-N-(3-chlor-4-methylphenyl)acetamide] | 101% | 6.24 |
| CC(=O)N(c1ccc(C)c(Cl)c1)c1cc(NC(=O)Cc2c(Cl)cccc2Cl)ccn1 [Example 182, N-(3-Chlor-4-methylphenyl)-N-{4-[2-(2,6-dichlorphenyl)acetamido]pyridin-2-yl}acetamide] | 102% | 6.23 |
| CC(=O)N(c1ccc(C)c(Cl)c1)c1cc(NC(=O)Cc2c(F)cccc2Cl)ccn1 [Example 183, N-{4-[2-(2-Chlor-6-fluorphenyl)acetamido]pyridin-2-yl}-N-(3-chlor-4-methylphenyl)acetamide] | 101% | 6.22 |
